“Also recorded” adds a separate entry of the source.
Key:
CYP3A4 = molecular target: T1, CYP3A4 (Homo sapiens, UniProt P08684); test: in vitro; assay type: binding
T1 construct: made in house
Protocol: (§1) (Adapted from DeVore, et al.)[25] Ligand interaction with the heme iron was evaluated by titrating ligands into a cuvette containing purified CYP17A1[14], CYP2D6 L230D/L231R[26], or CYP3A4[27] and measured using a UV-visible scanning spectrophotometer. Enzyme was diluted to 0.2 µM in 100 mM potassium phosphate buffer (pH 7.4), 20% glycerol, and 100 mM sodium chloride and divided equally between two 5 mL cuvettes to evaluate high-affinity binding. Ligands dissolved in dimethylsulfoxide (DMSO) were added to the sample cuvette and an equal volume of DMSO to the reference cuvette. Difference spectra were recorded from 300 to 500 nm after equilibration of enzyme and ligand. Binding to the enzyme was measured as the difference in maximal and minimal absorbance: A387—A419 for pregnanolone and 3-formyl pregnanolone, and A435—A393 for compound 1 with CYP17A1; A434—A414 for compound 1 with CYP3A4 and CYP2D6. The dissociation constant and maximum spectral change were calculated using tight-binding or quadratic equation. All data fitting was accomplished using GraphPad Prism 9. Details of fitting are provided in Supplementary Information, and numerical data used to generate graphs in Figs. 2, 4 and 5 are provided in Supplementary Data 3 in Excel format.

CYP17A1 [1] = molecular target: T2, CYP17A1 (Homo sapiens, UniProt P05093); test: Ligand binding assay (UV-visible difference spectra titration); details: for Soret peak after titration (heme spectral shift from 417 nm water-bound): ferric CYP17A1, 430 nm = Fe—C isonitrile bond, 424 nm = type II Fe—N
T2 construct: made in house
T2 sequence (P05093 1-508): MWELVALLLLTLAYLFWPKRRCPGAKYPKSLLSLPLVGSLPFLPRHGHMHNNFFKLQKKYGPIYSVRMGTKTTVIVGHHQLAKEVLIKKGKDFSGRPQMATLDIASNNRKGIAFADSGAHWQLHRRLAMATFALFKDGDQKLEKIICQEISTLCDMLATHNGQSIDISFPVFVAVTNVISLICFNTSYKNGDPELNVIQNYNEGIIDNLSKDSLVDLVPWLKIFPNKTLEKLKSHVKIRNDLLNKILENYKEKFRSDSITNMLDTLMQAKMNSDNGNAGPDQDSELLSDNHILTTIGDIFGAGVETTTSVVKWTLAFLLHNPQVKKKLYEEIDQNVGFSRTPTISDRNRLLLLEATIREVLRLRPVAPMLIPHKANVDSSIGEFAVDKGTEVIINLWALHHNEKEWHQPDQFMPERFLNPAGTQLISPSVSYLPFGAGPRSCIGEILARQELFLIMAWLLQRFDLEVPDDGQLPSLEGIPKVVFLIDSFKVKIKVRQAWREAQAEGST
Protocol: as §1

CYP106A2 = CYP106A2 (Priestia megaterium, UniProt Q06069); test: Absorbance difference spectra titration of CYP106A2; assay type: binding, bacterial; details: 1 µM CYP106A2; for difference spectrum increase / λmax on binding to CYP106A2: 393 nm = type I, 435 nm = heme Fe-isonitrile bond
CYP106A2, sequence (Q06069 whole entry): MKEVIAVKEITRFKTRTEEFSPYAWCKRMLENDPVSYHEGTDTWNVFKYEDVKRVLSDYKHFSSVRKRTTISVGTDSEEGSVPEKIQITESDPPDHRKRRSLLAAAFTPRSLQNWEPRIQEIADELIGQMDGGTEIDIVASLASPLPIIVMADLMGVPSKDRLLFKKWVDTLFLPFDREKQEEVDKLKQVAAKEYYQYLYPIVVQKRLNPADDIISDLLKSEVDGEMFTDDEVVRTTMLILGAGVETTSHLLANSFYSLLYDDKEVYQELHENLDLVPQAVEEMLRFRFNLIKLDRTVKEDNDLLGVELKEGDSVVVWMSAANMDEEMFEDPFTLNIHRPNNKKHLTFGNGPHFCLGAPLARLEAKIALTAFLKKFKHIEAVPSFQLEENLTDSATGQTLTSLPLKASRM
Protocol: Fig. 5 CYP106A2 interaction with steroidal isonitriles. […] Maximum concentration of 2 (light blue trace) is 20 µM. […] Maximum concentration of 4 is ~10 µM (blue trace). C Overlay of 800 MHz ^1H,^15N-TROSY-HSQC spectra of ^15N-Gly-labeled CYP106A2 with levopimaric acid p-benzoquinone Diels-Alder adduct bound after reduction with sodium dithionite and treatment with carbon monoxide (red), or with 7,17-(bis)isonitrile 4 (blue) after anaerobic reduction with sodium dithionite.

CYP17A1 [2] = molecular target: T3, CYP17A1 (Homo sapiens, UniProt P05093); test: biochemical
T3 construct: made in house
T3 sequence (P05093 24-508 limits assumed): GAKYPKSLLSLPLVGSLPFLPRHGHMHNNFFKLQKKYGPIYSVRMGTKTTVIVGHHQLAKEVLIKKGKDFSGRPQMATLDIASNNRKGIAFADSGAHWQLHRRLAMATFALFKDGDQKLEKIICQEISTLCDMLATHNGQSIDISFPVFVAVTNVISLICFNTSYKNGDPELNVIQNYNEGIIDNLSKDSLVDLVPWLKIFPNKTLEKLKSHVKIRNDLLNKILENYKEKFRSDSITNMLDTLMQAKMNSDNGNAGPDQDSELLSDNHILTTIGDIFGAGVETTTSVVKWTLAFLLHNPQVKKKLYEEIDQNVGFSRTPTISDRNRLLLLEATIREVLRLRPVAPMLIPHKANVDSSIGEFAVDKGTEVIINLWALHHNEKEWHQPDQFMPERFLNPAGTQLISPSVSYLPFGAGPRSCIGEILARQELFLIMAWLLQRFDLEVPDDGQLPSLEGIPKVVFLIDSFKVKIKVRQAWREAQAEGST
Protocol: Metabolic activity of CYP17A1 was evaluated by measuring 17α-hydroxylation of progesterone as detected by HPLC with UV detection at 240 nm. A 1:4 ratio of CYP17A1 to recombinant NADPH-cytochrome P450 reductase was mixed and incubated on ice for 20 min. […] Reaction vials were warmed to 37 °C for 3 min, then catalysis was initiated by adding NADPH to a final concentration of 1 mM. After 10 min, metabolism was quenched by adding 300 µL of 20% trichloroacetic acid and placed on ice. The reaction vials were centrifuged to pellet the precipitated protein, then the supernatant was injected onto a C18 column for HPLC identification of product. Metabolite elution was normalized to β-estradiol as an internal standard. A standard curve of known product concentrations was used to convert normalized area under curve to amount of product produced. A four-parameter variable-slope equation was used to fit the data and calculate IC50 values for inhibitors using GraphPad Prism 9.
195 Metabolic activity of CYP17A1 was evaluated by measuring 17α-hydroxylation of progesterone as detected
196 by HPLC with UV detection at 240 nm. A 1:4 ratio of CYP17A1 to recombinant NADPH-cytochrome P450
197 reductase was mixed and incubated on ice for 20 minutes. This mixture was added to buffer (50 mM Tris, pH
199 Reaction vials were warmed to 37 °C for three minutes, then catalysis was initiated by adding NADPH to a
200 final concentration of 1 mM. After 10 minutes, metabolism was quenched by adding 300 µL of 20%
201 trichloroacetic acid and placed on ice. The reaction vials were centrifuged to pellet the precipitated protein,
202 then the supernatant was injected onto a C18 column (Phenomenex, Luna, 50 x 4.6 mm) for HPLC. The 30-
203 minute HPLC method ran at 0.8 mL/min and started with a mobile phase of 60% acetonitrile, 40% water with
204 0.2% acetic acid for five minutes, in creased to 80% acetonitrile over 10 minutes, held at 80% acetonitrile for
205 five minutes, 100% acetonitrile for five minutes, then returned to 60% acetonitrile to prepare for the next
206 sample. Metabolite elution was normalized to β-estradiol as an internal standard. A standard curve of known
207 product concentrations was used to convert normalized area under curve to amount of product produced. A
208 four-parameter variable-slope equation (Y=Ymin + (Ymax-Ymin)/(1+(IC50/X)^(Hill Slope))) was used to fit the data
209 and calculate IC50 values for inhibitors using GraphPad Prism 9.

T1 sequence (P08684 whole entry): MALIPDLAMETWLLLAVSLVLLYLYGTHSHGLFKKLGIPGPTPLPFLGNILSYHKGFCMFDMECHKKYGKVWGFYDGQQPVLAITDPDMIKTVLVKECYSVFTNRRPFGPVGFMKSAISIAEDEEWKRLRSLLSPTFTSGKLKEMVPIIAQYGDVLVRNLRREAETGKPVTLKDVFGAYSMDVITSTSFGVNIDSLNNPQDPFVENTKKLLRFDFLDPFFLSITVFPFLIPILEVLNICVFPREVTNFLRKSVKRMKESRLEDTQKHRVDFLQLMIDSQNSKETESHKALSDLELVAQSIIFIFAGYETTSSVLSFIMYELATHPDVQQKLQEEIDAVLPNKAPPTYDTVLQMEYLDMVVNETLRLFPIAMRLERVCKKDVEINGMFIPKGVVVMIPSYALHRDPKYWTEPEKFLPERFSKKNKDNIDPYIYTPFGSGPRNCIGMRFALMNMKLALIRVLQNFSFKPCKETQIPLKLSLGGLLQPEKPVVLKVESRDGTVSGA

| Compound | Soret peak after titration (heme spectral shift from 417 nm water-bound) (CYP17A1 [1]) | spectral response / binding mode on CYP106A2 (CYP106A2) | difference spectrum increase / λmax on binding to CYP106A2 (CYP106A2) | other results |
| --- | --- | --- | --- | --- |
| CC(=O)[C@H]1CC[C@H]2[C@@H]3CC[C@H]4C[C@@H](OC=O)CC[C@]4(C)[C@H]3CC[C@]12C [3β-formyl-5α-pregnanalone, reference compound] | – | – | – | Kd fold higher than 20-(R)-1 (CYP3A4; CYP3A4, parent steroid versus 20-(R)-1): ~ 20 fold; Kd (CYP3A4; protein 200 nM, 5 cm cuvette, tight-binding or quadratic equation, Fig. 4B: n = 3, 95% CI 120–215 nM, read-out: dissociation constant (Kd)): ~3.2 µM |
| [C-]#[N+][C@H]1CC[C@H]2[C@@H]3CC[C@H]4C[C@@H](OC=O)CC[C@]4(C)[C@H]3CC[C@]12C [Compound 2] | 420 nm | weak type I (substrate-like) blue shift | 393 nm | – |
| [C-]#[N+][C@H]1CC[C@H]2[C@@H]3CC=C4C[C@@H](OC=O)CC[C@]4(C)[C@H]3CC[C@]12C [Compound 3] | – | – | 393 nm | – |
| [C-]#[N+]C1C=C2C[C@@H](OC=O)CC[C@]2(C)[C@H]2CC[C@]3(C)[C@@H]([N+]#[C-])CC[C@H]3[C@H]12 (stereo partly shown) [Compound 4] | – | does form an iron-isonitrile bond; also recorded: bind with the shift expected for Fe—CN—R bond formation | 435 nm | – |
| C[C@]12CC[C@H](O)CC1=CC[C@@H]1[C@@H]2CC[C@]2(C)C(c3cccnc3)=CC[C@@H]12 [abiraterone] | 424 nm | – | – | Kd (CYP17A1 [1]; protein 200 nM, 95% CI undefined to 3.8 nM, read-out: dissociation constant estimate (tight binding equation fit)): 0.044 nM; slope of the inhibition curve (CYP17A1 [2]; CYP17A1 progesterone hydroxylation): 1.1; IC50 fold lower than for 1 (CYP17A1 [2]; abiraterone versus 1): 27 fold; IC50 (CYP17A1 [2]; triplicate, four-parameter variable-slope fit, read-out: IC50, CYP17A1 progesterone hydroxylation): 47 nM |
